Reference: patent US8592374B2, “Neurotrophic peptides” (Research Foundation for Mental Hygiene, Inc., priority 2007, dated 2013)
Entries after “also recorded” stand apart in the source; their conditions may differ. Peptide text beside a SMILES is read from it. * marks the point of attachment. Adamantane1carbonyl = O=C(C12CC3CC(CC(C3)C1)C2)*; X1 = NC(=O)C12CC3CC(CC(N*)(C3)C1)C2

Key:
[1] = General examination (physical state, body weight, exploratory activity, swim speed, floating); assay type: in vivo, mice; details: 25 nmol/day for 35 days
Procedure: All in vivo studies for characterization of compounds (stereology and behavioral analysis) were performed on 8-10-month-old female retired breeders of C57Bl6 background. Animals were acclimatized for at least 3 weeks to exclude occasional pregnant mice from the studies. Mice were group-housed (3 animals per cage) with a 12:12 hours light/dark cycle and with free access to food and water.
(§1) For the compound treatment, mice (8 animals/group) received subcutaneous implants of extended release depot pellets containing P21 or P22 at 25 nmol/day for 35 days of continuous dosing (Innovative Research of America, USA). For the control group (8 animals), pellets consisted of the carrier polymer only. Mice were anesthetized with 2.5% Avertin (0.38 ml for a 25 g animal). Under sterile conditions, pellets were implanted subcutaneously along the anterolateral aspect of the right shoulder with a precision trochar (Innovative Research of America). After recovery of anesthesia, animals were transferred to the animal colony. No complications associated with the implantation and treatment were observed. All procedures on animals were conducted in accordance with approved protocols from our Institutional Animal Welfare Committee.
The physical state and condition of animals were carefully monitored throughout the treatment by evaluating grooming, physical state and clasping reflex. Body weight was also recorded.
The test used was an adaptation of the procedure previously described by Sargolini and collaborators (Sargolini, F., et al. Behav Brain Res 138 (2003):153-63). The testing apparatus was a classic open field (i.e. a PVC square arena, 50×50 cm, with walls 40 cm high). The open field was placed in a part of the room separated from the experimentator with a black opaque curtain. The open field was surmounted by a video camera connected to a computer. Three objects were employed in this task. The general procedure consisted of three different phases: a familiarization phase (1 session of 20 min), a sample phase, and a test phase. On the first days, mice were individually submitted to the familiarization session during which they were introduced in the empty arena in order to become familiar with the apparatus. This familiarization session allowed to record a baseline level of locomotor activity (measuring the distance covered in the open field) and of anxiety (measuring the time the animals spent in the centre of the arena during the first five minutes). On the second day each mouse was first submitted to the sample phase (session 1, ten minutes) for which two identical objects were placed in a symmetric position from the centre of the arena. After a 15 minute delay during which the mouse returned to its home cage, it was reintroduced in the arena to perform the test phase (session 2, 10 min). The mouse was then exposed to two objects: a familiar object (previously presented during the sample phase) and a new object, placed at the same location as during the sample phase. Data collection was performed using a video tracking system (Smart version 2.0.14 software, Pan Lab/San Diego Instruments). Object discrimination was calculated as follows: OD=(time spent close to new object)/(time spent close to new object)+(time spent close to old object)×100

[2] = as above; assay type: in vivo, mice; details: 25 nmol/day for 35 days; remark: listed apart in the source
[3] = tested on: normal adult mice; test: One-trial object recognition test; assay type: in vivo; details: 25 nmol/day, test phase after 15 minute delay
Procedure: as §1
In the one-trial object recognition task, animals are exposed to two different objects which they have to identify as novel or familiar based on the memory of an earlier experience with one of the two objects they encountered in the same open field. The familiar object is explored shorter than the novel encountered one because the representation of the former is still available in memory. The one-trial object recognition task tests some aspects of episodic memory but is limited to memory of an object (what), the location of an object (where), and the context in which it was encountered (which). However, the temporal dimension of the episode remains inaccessible to the experimentator, and because of this reason this task in animals is considered a test of short term memory.
The test used was an adaptation of the procedure previously described by Sargolini and collaborators (Sargolini, F., et al. Behav Brain Res 138 (2003):153-63). The testing apparatus was a classic open field (i.e. a PVC square arena, 50×50 cm, with walls 40 cm high). […] Object discrimination was calculated as follows: OD=(time spent close to new object)/(time spent close to new object)+(time spent close to old object)×100

[4] = tested on: normal adult mice; test: Open field, time in the centre of the arena (anxiety); assay type: in vivo; details: 25 nmol/day, first five minutes of familiarization session
Procedure: as §1
The test used was an adaptation of the procedure previously described by Sargolini and collaborators (Sargolini, F., et al. Behav Brain Res 138 (2003):153-63). The testing apparatus was a classic open field (i.e. a PVC square arena, 50×50 cm, with walls 40 cm high). The open field was placed in a part of the room separated from the experimentator with a black opaque curtain. […] Object discrimination was calculated as follows: OD=(time spent close to new object)/(time spent close to new object)+(time spent close to old object)×100

[5] = tested on: normal adult mice; test: Spatial reference memory task in the water maze; assay type: in vivo
Procedure: as §1
Spatial reference learning and memory were evaluated in the water maze using a procedure adapted from that previously described by Morris et al. (Morris, R. G., et al. Nature 297 (1982): 681-3). The test required that mice used a spatial navigational strategy based on a spatial representation of the environment to find a fixed submerged escape platform. The procedure was performed in a 180 cm diameter circular tank. The pool was filled with water (21±1° C.) made opaque by adding white non-toxic paint. Acquisition started with the escape platform (15 cm diameter submerged 1 cm below water surface) in the Northwest quadrant and each animal was given 90 s to find the platform. […] At the end of each trial, the mouse was left on the platform for 20 seconds, then dried and returned to its home cage until the next trial. Five such acquisition trials were given on each day for four consecutive days. A test for retention, or probe trial (PT), was given 24 hours later. During the probe trial the mouse was allowed to swim in the tank without the escape platform for 60 seconds. This was followed by second and third probe trials 15 and 30 days after the first probe trial.
The measures of learning were the time and distance covered to reach the escape platform. For the probe trial, the tank was divided into four imaginary quadrants and a small zone where the escape platform had been. The measure of retention was calculated as the ratio of time spent or distance covered in target quadrant over that in the three other quadrants.
Mouse behavior in the water maze was monitored by a Samsung Digital Camera (SDC 4304) mounted to the ceiling and tracked and timed by a SMART (Pan Lab/San Diego Instruments) version 2.0.14 software.

[6] = tested on: adult hippocampal progenitors in the dentate gyrus; test: Neurogenesis in the DG (BrdU-positive and BrdU/NeuN-double-positive cells); assay type: in vivo, mice; details: 25 nmol/day for 35 days
Procedure: as §1
To investigate neurogenesis, BrdU (Sigma, USA) was given as two daily i.p. injections (100 mg/kg/dose) for five days starting on day 2 of compounds treatment.
At the end of the behavioral experiment, animals were anesthetized with an overdose of sodium pentobarbital (120 mg/kg) and transcardially perfused with 0.1 M phosphate buffered saline (PBS). After perfusion, the brains were removed from the skull, the left hemisphere was immediately frozen for future biochemical analysis and the right hemisphere was immersion fixed in 4% paraformaldehyde in 0.1 M PBS for at least 24 hours at room temperature. Tissues were equilibrated and stored in 30% sucrose solution at 4° C. until sectioning. The brains were sectioned sagittaly on a freezing sliding microtome at 40 μm through the entire hippocampus and the sections were stored in glycol anti-freeze solution (Ethylene glycol, glycerol and 0.1 M PBS in 3:3:4 ratio) at −20° C. until further processing.
For double labeling of BrdU and NeuN, brain sections were pretreated with 2 M HCl at 37° C. for 30 min and neutralized with 0.1 M borate buffer (pH 8.5) for 10 minutes. […]
Neurogenesis in the dentate gyrus was evaluated by counting the number of BrdU-positive and BrdU/NeuN-double-positive cells in the dentate gyrus (DG). The number of positive cells was determined in every fifth section in a series of 40 μm sagittal sections throughout the DG using unbiased sterology. All BrdU-positive cells in the subgranular zone (SGZ) and granule cell layer (GCL) were counted using a fluorescent microscope (Nikon Eclipse 90i, Nikon Corporation, Japan). Double labeled cells were assessed by a confocal imaging system (D-Eclipse C1, Nikon Corporation). […] For each brain, at least 100 cells were counted based on coefficient of error determinations.

[7] = tested on: AHPs; test: Cell-based assay for differentiation of AHPs with CNTF (βIII-tubulin/DAPI); details: 1 hr fixation
Procedure: βIII-tubulin antigenicity is compromised by fixation, although longer fixation improves attachment to the plates. Therefore, plates with different coatings for their suitability to be used in differentiation assay using CNTF (0.1, 1, 10, 100 ng/ml) were tested. Coating matrices tested: • poly D-lysine • poly D-lysine/laminin • poly L-ornithine/laminin • polyethyleneimine • collagen I • fibronectin The best immunostaining for βIII-tubulin was with 10 min fixation. However, since less cells were lost with 1 hr fixation, the differentiation assay with CNTF was performed with 1 hr fixation. The best differentiation was achieved on polyethyleneimine coated plates using the ratio of βIII-tubulin immunostaining to DAPI nuclear staining (cell number) as % of control as a relative measure of differentiation.

[8] = cited from earlier work
[9] = tested on: embryonic chick ciliary neurons; details: embryonic chick ciliary neurons in culture; cited from earlier work
[10] = molecular target: T1, human CNTF receptor (Homo sapiens, UniProt P26992); details: cited from earlier work
T1 sequence (P26992 23-342): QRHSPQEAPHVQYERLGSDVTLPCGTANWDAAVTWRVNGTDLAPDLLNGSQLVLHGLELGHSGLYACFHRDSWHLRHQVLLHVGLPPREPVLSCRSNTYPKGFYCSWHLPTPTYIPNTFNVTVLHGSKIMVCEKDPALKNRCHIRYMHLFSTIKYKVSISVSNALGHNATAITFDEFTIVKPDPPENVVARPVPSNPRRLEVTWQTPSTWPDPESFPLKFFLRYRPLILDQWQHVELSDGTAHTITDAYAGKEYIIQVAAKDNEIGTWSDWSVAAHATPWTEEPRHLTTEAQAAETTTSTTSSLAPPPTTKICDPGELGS

CC(C)C[C@H](NC(=O)CNC(=O)CNC(=O)[C@H](CC(=O)O)NC(=O)C12CC3CC(CC(C3)C1)C2)C(=O)NC12CC3CC(C1)CC(C(N)=O)(C3)C2 [Peptide P22, 1-AdCO-DGGL^AG-NH2] (Adamantane1carbonyl-DGGL-X1)
exploratory behavior / exploratory activity ([1]; open field): no alteration; also recorded: did not induce any effect
body weight ([1]; subcutaneous pellets): no alteration; also recorded: did not induce any effect
general physical state ([1]; subcutaneous pellets): no alteration
floating behavior in the water maze task (sign of depression or locomotor impairment) [2]: no floating behavior was observed
swim speed ([2]; water maze): no alteration; also recorded: did not induce any effect
time exploring the new object versus the familiar object [3]: did not preferentially explore the novel object
level of anxiety (time in the center of the open field) [4]: spent more time in the center of the open field than control animals; also recorded: reduced anxiety level
effect in the probe trials ([5]; three probe trials): No statistically significant effect
escape latencies to reach the submerged platform (learning) ([5]; training day 2 to 4, compared to control group): significantly reduced; also recorded: increased performance in the learning of spatial memory task
BrdU positive cells in the DG (GCL and SGZ) [6]: No significant alteration in neurogenesis
BrdU/NeuN positive cells in the DG (GCL) [6]: No significant changes

B1: CNTF: Ciliary neurotrophic factor, a survival factor for various neuronal cell types; 200 amino acid protein (protein, UniProt P26441 1-200, looked up)
chain: MAFTEHSPLTPHRRDLCSRSIWLARKIRSDLTALTESYVKHQGLNKNINLDSADGMPVASTDQWSELTEAERLQENLQAYRTFHVLLARLLEDQQVHFTPTEGDFHQAIHTLLLQVAAFAYQIEELMILLEYKIPRNEADGMPINVGDGGLFEKKLWGLKVLQELSQWTVRSIHDLRFISSHQTGIPARGSHYIANNKKM
modifications: full-length
notes: Ciliary neurotrophic factor, a survival factor for various neuronal cell types; 200 amino acid protein
βIII-tu/DAPI (% of Control) (100 ng/ml CNTF) ([7]; coating poly D-lysine): 175 % of Control
βIII-tu/DAPI (% of Control) (100 ng/ml CNTF) ([7]; coating poly D-lysine/laminin): 240 % of Control
βIII-tu/DAPI (% of Control) (100 ng/ml CNTF) ([7]; coating poly L-ornithine/laminin): 330 % of Control
βIII-tu/DAPI (% of Control) (100 ng/ml CNTF) ([7]; coating poly ethyleneimine): 480 % of Control
side effects of administration in human clinical trials [8]: anorexia, skeletal muscle loss, hyperalgesia, cramps, and muscle pain

B2: recombinant rat CNTF: recombinant rat ciliary neurotrophic factor (protein, UniProt P20294 1-200, looked up)
Ciliary neurotrophic factor: MAFAEQTPLTLHRRDLCSRSIWLARKIRSDLTALMESYVKHQGLNKNINLDSVDGVPVASTDRWSEMTEAERLQENLQAYRTFQGMLTKLLEDQRVHFTPTEGDFHQAIHTLMLQVSAFAYQLEELMVLLEQKIPENEADGMPATVGDGGLFEKKLWGLKVLQELSQWTVRSIHDLRVISSHQMGISALESHYGAKDKQM
biological activity in supporting survival and neurite outgrowth, relative to recombinant human CNTF [9]: four times better
affinity for the human CNTF receptor relative to human CNTF [10]: higher affinity
